This note sets out measurements from PMC6720714, “Structural and Biological Characterizations of Novel High-Affinity Fluorescent Probes with Overlapped and Distinctive Binding Regions on CXCR4” (Molecules, 2019).

Assay [1] addresses T1, CXCR4 (Homo sapiens, UniProt P61073). In words: Three parallel CXCR4 competitive binding assays (FITC-CVX15, FITC-DV1, 12G5) compared. The arrangement: expressed in transfected cells; host or cells: CHO (CHO-CXCR4, G418-selected). The following applies: for difference of IC50 values between the three binding systems: Type 1, relative to the minimum values. The protocol:
(§1) Gradient concentrations of CXCR4 ligands were prepared with 1% BSA/PBS. CHO-CXCR4 cells were cultured and diluted into 5 × 10^5 cells/mL in 0.5% BSA/PBS. One hundred microliters of above cell solutions were added to each well of a 96-well plate and washed twice with 0.5% BSA/PBS. Cells were then incubated with 100 μL primary 12G5 Ab (1:2000, mouse anti-human CD184 antibody, BD Biosciences, CA, USA) in 0.5% BSA/PBS except for negative control group and gradient concentrations of CXCR4 ligands for 40 min on a shaker at 4 °C.

Assay [2] concerns the target T1, CXCR4. In words: cell-based.
Assay [3] addresses T1, CXCR4. In words: FITC-CVX15-based competitive binding assay on CHO-CXCR4 cells. The arrangement: expressed in transfected cells; host or cells: CHO (CHO-CXCR4, G418-selected).
Assay [4] addresses T1, CXCR4. Kind of assay: 12G5 antibody-based competitive binding assay on CHO-CXCR4 cells. Further details: expressed in transfected cells; host or cells: CHO (CHO-CXCR4, G418-selected). As to the method:
as §1

The target in assay [5] is CXC-type chemokine receptor 4 (CXCR4) (UniProt P61073). Kind of assay: competitive binding on cells, fluorescence by microplate reader; FITC-CVX15-based: CHO-CXCR4 cells, 400 nM FITC-CVX15 with gradient concentrations of ligand in 1% BSA/PBS, 50 min, 4 °C, dark, washed twice; excitation 485 nm, emission 535 nm.
Assay [6] shares this target. In words: competitive binding on cells, fluorescence by microplate reader; FITC-DV1-based: CHO-CXCR4 cells, 1 μM FITC-DV1 with gradient concentrations of ligand in 1% BSA/PBS, 50 min, 4 °C, dark, washed twice; excitation 485 nm, emission 535 nm.
Assay [7] shares this target. Kind of assay: competitive binding on cells, fluorescence by microplate reader; 12G5-based: CHO-CXCR4 cells, antibody 12G5 (250 ng/mL; 1:2000) with gradient concentrations of ligand in 0.5% BSA/PBS, 40 min, 4 °C; FITC-conjugated goat anti-mouse IgG 30 min; excitation 485 nm, emission 535 nm.
The target is the same in assay [8]. In words: saturation binding on cells, fluorescence by microplate reader.
Assay [9] deals with T2, CXC-type chemokine receptor 4 (CXCR4) (UniProt P61073 1-352).
T2 construct: also called CD184; CHO-CXCR4
Kind of assay: competitive binding on cells, fluorescence by microplate reader; FITC-CVX15-based: CHO-CXCR4 cells, 400 nM FITC-CVX15 with gradient concentrations of ligand in 1% BSA/PBS, 50 min, 4 °C, dark, washed twice; excitation 485 nm, emission 535 nm. The following applies: one partner purified.

The target in assay [10] is T2, CXC-type chemokine receptor 4 (CXCR4). In words: competitive binding on cells, fluorescence by microplate reader; FITC-DV1-based: CHO-CXCR4 cells, 1 μM FITC-DV1 with gradient concentrations of ligand in 1% BSA/PBS, 50 min, 4 °C, dark, washed twice; excitation 485 nm, emission 535 nm. The following applies: one partner purified.
For assay [11] the target is unchanged. In words: competitive binding on cells, fluorescence by microplate reader; 12G5-based: CHO-CXCR4 cells, antibody 12G5 (250 ng/mL; 1:2000) with gradient concentrations of ligand in 0.5% BSA/PBS, 40 min, 4 °C; FITC-conjugated goat anti-mouse IgG 30 min; excitation 485 nm, emission 535 nm. The following applies: one partner purified.

Bridge positions count the residues as written; N and C are the ends. Square brackets hold non-standard residues; d marks the D form. Ends that are not written are not given here. Peptide text beside a SMILES is read from it. 2Nal = N[C@@H](Cc1ccc2ccccc2c1)C(=O)O; Lys(iPr) = CC(C)NCCCC[C@H](N)C(=O)O; Cit = NC(=O)NCCC[C@H](N)C(=O)O

T1 sequence (P61073 whole entry): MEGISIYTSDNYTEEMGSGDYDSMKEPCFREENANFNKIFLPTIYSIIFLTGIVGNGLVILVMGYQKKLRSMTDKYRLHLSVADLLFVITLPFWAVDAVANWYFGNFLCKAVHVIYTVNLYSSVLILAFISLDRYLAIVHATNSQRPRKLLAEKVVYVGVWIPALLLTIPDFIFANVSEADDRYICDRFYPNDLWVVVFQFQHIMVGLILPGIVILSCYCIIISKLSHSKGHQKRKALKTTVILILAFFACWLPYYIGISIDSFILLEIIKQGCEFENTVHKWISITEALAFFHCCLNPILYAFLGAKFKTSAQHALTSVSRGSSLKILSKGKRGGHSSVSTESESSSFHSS
Chain of CXC-type chemokine receptor 4 (CXCR4) (UniProt P61073) (P61073 whole entry): as above
T2 sequence (P61073 whole entry): as above

For `CC(C)NCCCC[C@H](NC(=O)[C@H]1CCC(=O)N[C@@H](Cc2ccccc2)C(=O)N[C@@H](Cc2ccc(O)cc2)C(=O)N[C@@H](CCCCNC(C)C)C(=O)N[C@H](CCCNC(=N)N)C(=O)N[C@@H](Cc2ccc3ccccc3c2)C(=O)NCC(=O)N1)C(N)=O` [LY2510924] (FY[Lys(iPr)][dR][2Nal]G[dE][Lys(iPr)]-NH2; lactam N-7), on CXCR4 [1] (Type 3), the “IC50 from 12G5-based assay versus IC50 from FITC-CVX15 and FITC-DV1 assays” value was “over two-fold higher”.

Turning to `CC(C)C[C@@H](N)C(=O)NCC(=O)N[C@H](C)C(=O)N[C@H](CO)C(=O)N[C@H](Cc1c[nH]c2ccccc12)C(=O)N[C@H](Cc1c[nH]cn1)C(=O)N[C@H](CCCNC(=N)N)C(=O)N1CCC[C@@H]1C(=O)N[C@H](CC(=O)O)C(=O)N[C@H](CCCCN)C(=O)N[C@H](CS)C(=O)N[C@H](CS)C(=O)N[C@H](CC(C)C)C(=O)NCC(=O)N[C@H](Cc1ccc(O)cc1)C(=O)N[C@H](CCC(N)=O)C(=O)N[C@H](CCCCN)C(=O)N[C@H](CCCNC(=N)N)C(=O)N1CCC[C@@H]1C(=O)N[C@H](CC(C)C)C(=O)N1CCC[C@@H]1C(N)=O` [DV1] (H-[dL]G[dA][dS][dW][dH][dR][dP][dD][dK][dC][dC][dL]G[dY][dQ][dK][dR][dP][dL][dP]-NH2), the “difference of IC50 values between the three binding systems” value (shortened to “difference”) on CXCR4 [1] is listed as “less than two folds”.

With `CC(C)C[C@H](NC(=O)[C@H](CS)NC(=O)[C@H](CS)NC(=O)[C@H](CCCCN)NC(=O)[C@H](CC(=O)O)NC(=O)[C@@H]1CCCN1C(=O)[C@H](CCCNC(=N)N)NC(=O)[C@H](Cc1c[nH]cn1)NC(=O)[C@H](Cc1c[nH]c2ccccc12)NC(=O)[C@H](CO)NC(=O)[C@H](C)NC(=O)CNC(=O)[C@@H](N)CC(C)C)C(=O)NCC(=O)N[C@@H](Cc1ccc(O)cc1)C(=O)N[C@@H](CCC(N)=O)C(=O)N[C@@H](CCCCN)C(=O)N[C@@H](CCCNC(=N)N)C(=O)N1CCC[C@H]1C(=O)N[C@@H](CC(C)C)C(=O)N1CCC[C@H]1C(=O)O` [V1] (H-LGASWHRPDKCCLGYQKRPLP-OH), the IC50 came out at 676 nM on CXCR4 [2], 687 nM at CXCR4 [3] and 712 nM on CXCR4 [4]. Further, on CXCR4 [1], the “difference” value is “less than two folds”.

On to CVX15 (peptide), for which the IC50 in assay [5] was 6.2 nM; in assay [6] it was 6.8 nM; in [7] it was 6 nM.

Molecule FITC-CVX15 (peptide) showed a concentration at which the fluorescent signal reached a plateau in [8] of 400 nM.

With `N=C(N)NCCC[C@@H]1NC(=O)[C@@H]2CSSC[C@H](NC(=O)[C@H](Cc3ccc4ccccc4c3)NC(=O)[C@H](CCCNC(=N)N)NC(=O)[C@H](CCCNC(=N)N)NC(=O)[C@H]3CCCN3C(=O)CNC1=O)C(=O)N[C@@H](Cc1ccc(O)cc1)C(=O)N[C@@H](CCC(N)=O)C(=O)N[C@@H](CCCCN)C(=O)N1CCC[C@@H]1C(=O)N1CCC[C@H]1C(=O)N[C@@H](Cc1ccc(O)cc1)C(=O)N[C@@H](CCCNC(=N)N)C(=O)N[C@@H](CCCNC(N)=O)C(=O)N2` [CVX15] (cyclo(RR[2Nal]CYQK[dP]PYR[Cit]CRG[dP]); disulfide 4-13), the “difference” value at CXCR4 [1] is on record as “less than two folds”.

For the molecule [dL]G[dA][dS][dW][dH][dR][dP][dD][dK][dC][dC][dL]G[dY][dQ][dK][dR][dP][dL][dP] (cysteine pairing not given here; also: dimer (linkage not given here)) [DV1 dimer], the half-inhibitory concentration (IC50) in assay [9] amounted to 29.4 nM; in assay [10] it was 25.6 nM; in assay [11], 67 nM.
